The record followed here is patent US20100081661A1, “HEME OXYGENASE INHIBITORS, SCREENING METHODS FOR HEME OXYGENASE INHIBITORS AND METHODS OF USE OF HEME OXYGENASE INHIBITORS FOR ANTIMICROBIAL THERAPY” (UNIVERSITY OF MARYLAND, BALTIMORE, priority 2006, published 2010).

Where two headings read alike, the source gives them in different places.

The Kd is the free concentration of one partner at which half of the binding sites on the other are occupied at equilibrium, for simple one-to-one binding.

Test [1] deals with T1, pa-HO (Pseudomonas aeruginosa, UniProt O69002). The test is classed as binding. The conditions noted are these: for NMR sat. transfer: Table 2, paHO; for NMR pa-HO: Table 3A.
Test [2] concerns P. aeruginosa. Nature of the test: MIC50 for P. aeruginosa. Format: cell-based, Pseudomonas aeruginosa. Particulars: for minimum inhibition conc / MIC: Table 2; for MIC: read-out: minimum inhibition conc.
For test [3], the target named is T2, nm-HO (Neisseria meningitidis, UniProt Q9AH50). Nature of the test: biochemical. The test is classed as binding.
In test [4] the target is T1, pa-HO. Put plainly: biochemical. Format: binding.
Test [5] has as its target T2, nm-HO. Format: cell-based.
Setting [6] is: Pseudomonas aeruginosa, Table 3A, read-out: MIC 50.
Where [7] appears, read: Pseudomonas aeruginosa, Table 3B, P. aeruginosa, read-out: MIC 50.
[8] abbreviates: Table 2, colour of cell pellet (white = no biliverdin, green = biliverdin) or toxicity to cells.
Where [9] appears, read: Table 3B, nm-HO in E. coli expression system.
Throughout, for NMR pa-HO: key: Shows binding by NMR method = +; Ambig = ambiguous.

T2 sequence (Q9AH50 1-209): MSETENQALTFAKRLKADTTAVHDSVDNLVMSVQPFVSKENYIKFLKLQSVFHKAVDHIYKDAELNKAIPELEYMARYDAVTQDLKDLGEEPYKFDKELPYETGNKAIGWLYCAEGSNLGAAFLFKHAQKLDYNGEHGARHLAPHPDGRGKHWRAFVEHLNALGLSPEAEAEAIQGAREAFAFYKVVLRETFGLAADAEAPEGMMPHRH
T1 sequence (O69002 1-198): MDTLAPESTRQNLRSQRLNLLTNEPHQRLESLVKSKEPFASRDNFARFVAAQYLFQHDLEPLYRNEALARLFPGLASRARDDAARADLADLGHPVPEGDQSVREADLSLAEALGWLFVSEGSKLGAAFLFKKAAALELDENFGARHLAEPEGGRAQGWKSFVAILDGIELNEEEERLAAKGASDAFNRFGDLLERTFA

Consider `CC(=O)Oc1ccc(-c2cccc(C(=O)O)c2)cc1` [Compound 61], for which, in test [1], the NMR sat. transfer entry is “yes, bind to paHO” and the “NMR pa-HO” value is “+”. Besides, the minimum inhibition conc entry in test [2] is reported as “no antibacterial activity”. The “MIC 50 (ug/ml)” value in test [2] (Table 3A) is “no antibact activity”.

For `O=C(O)CSc1ncnc2ccccc12` [Compound 36], in test [1], the NMR sat. transfer entry is recorded as “binds paHO” and the “NMR pa-HO” value is listed as “+”. Also, in test [2], the minimum inhibition conc entry is on record as “no antibacterial activity”. Besides, in test [2] (Table 3A), the “MIC 50 (ug/ml)” value is listed as “no antibact activity”.

On to `NCC(=O)N(O)Cc1ccccc1` [Compound 127], for which, in test [1], the NMR sat. transfer result is “yes, bind paHO” and the “NMR pa-HO” value is “+”. In test [2] (Pseudomonas aeruginosa), the MIC was over 1000 µg/mL. Moreover, in test [2] (setting [6]), the MIC50 was over 1000 µg/mL. In addition, the “MIC50” value in test [2] (Table 3B, P. aeruginosa) is over 1000 µg/mL.

Regarding `NCC(O)(c1ccc(Cl)cc1)c1ccc(Cl)cc1` [Compound 131], in test [1], the NMR sat. transfer result is on record as “yes, bind paHO” and the “NMR pa-HO” value was “+”. Also, the MIC in test [2] (Pseudomonas aeruginosa) was over 250 µg/mL. The MIC50 in test [2] (setting [6]) was over 250 µg/mL. Also, the “MIC50” value in test [2] (Table 3B, P. aeruginosa) is over 250 µg/mL.

As to `Cc1cc(C(=O)O)nn1-c1ccccc1` [Compound 115], in test [1], the NMR sat. transfer result is on record as “yes, bind paHO” and the “NMR pa-HO” value was “+”. Also, the MIC50 in test [2] (setting [7]) is over 1000 µg/mL. Moreover, the minimum inhibition conc entry in test [2] is “no antibacterial activity”. In addition, in test [2] (Table 3A), the “MIC 50 (ug/ml)” value is listed as “no antibact activity”.

`O=C1C=C(Nc2ccccc2O)c2ccccc2C1=O` [Compound 114] showed a Kd in test [3] of 28.8 µM. Also, the fluorescence binding result in test [4] is on record as “yes”. Further, the values for the E. coli assay entry in test [5] (setting [8]) and in test [5] (Table 6) were “toxic to cells” and “Toxic”, respectively. The “Biliverdin detection from E. coli Assay” value in test [5] (Table 3A, pellet colour) is “Toxic”; in test [5] (setting [9]), “Toxic”.

On to `Cc1cc(-c2ccc(F)cc2)nc2cc(C(=O)O)nn12` [Compound 85], for which, in test [1], the NMR sat. transfer entry was “yes, bind paHO” and the “NMR pa-HO” value was “+”. Also, the MIC50 in test [2] (setting [7]) is over 1000 µg/mL. In addition, the minimum inhibition conc entry in test [2] is “no antibacterial activity”. Also, in test [2] (Table 3A), the “MIC 50 (ug/ml)” value is “no antibact activity”.

As for `COc1ccc(C(=O)CCC(=O)O)c(C)c1` [Compound 59], the fluorescence binding result in test [4] is “yes”. In test [1], the NMR sat. transfer entry was “yes, bind paHO” and the “NMR pa-HO” value is listed as “+”. Besides, the MIC in test [2] (Pseudomonas aeruginosa) was over 1000 µg/mL. The MIC50 in test [2] (setting [6]) was over 1000 µg/mL. The “MIC50” value in test [2] (Table 3B, P. aeruginosa) is over 1000 µg/mL.

Regarding `O=C(c1ccco1)C12CN3CN(CN(C3)C1)C2` [Compound 133], the E. coli assay entry is “Alias: CB-9 fluorescence binding: nd minimum inhibition conc: nd NMR sat. transfer: nd E. coli assay: green pellet” in test [5] (setting [8]) and “Green Pellet” in test [5] (Table 4). Further, the “Biliverdin detection from E. coli Assay” value in test [5] (Table 3A, pellet colour) was “Green Pellet”; in test [5] (setting [9]), “Green Pellet”. Also, the MIC50 in test [2] (setting [6]) is over 380 µg/mL; in test [2] (Table 3B, P. aeruginosa), over 380 µg/mL.

In test [3], `O=C(Cc1ccc([N+](=O)O)cc1)N/N=C/c1ccc(O)cc1` [Compound 44] displayed a Kd of 12.3 µM. Further, in test [1], the NMR sat. transfer result is “Alias: CB-22 fluorescence binding: nd minimum inhibition conc: nd NMR sat. transfer: tested, ambiguous” and the “NMR pa-HO” value is listed as “Ambig”.

As to `CCN(CC)c1ccc(/C=N/n2nnnc2N)c(O)c1` [Compound 149], the fluorescence binding entry in test [4] is on record as “yes”. Moreover, in test [1], the NMR sat. transfer entry is given as “do not bind paHO”.

With `NC(=O)c1ccc(NC(=O)/C=C\C(=O)O)cc1Cl` [Compound 8], the E. coli assay result in test [5] (setting [8]) is “green pellet”; in test [5] (Table 4), “Green Pellet”. Moreover, the “Biliverdin detection from E. coli Assay” value in test [5] (Table 3A, pellet colour) is reported as “Green Pellet”; in test [5] (setting [9]), “Green Pellet”. Moreover, the MIC in test [2] (Pseudomonas aeruginosa) is over 750 µg/mL. In addition, the MIC50 is over 750 µg/mL in test [2] (setting [6]) and over 750 µg/mL in test [2] (Table 3B, P. aeruginosa).

Regarding `CC(N)c1ccc2ccccc2c1` (stereo not shown) [Compound 103], in test [1], the NMR sat. transfer entry was “yes, bind paHO” and the “NMR pa-HO” value is “+”. For the same molecule, in test [2] (Pseudomonas aeruginosa), the MIC is over 250 µg/mL. The MIC50 in test [2] (setting [6]) is over 250 µg/mL. In addition, the “MIC50” value in test [2] (Table 3B, P. aeruginosa) is over 250 µg/mL.

Take `O=C(NNC(=O)c1ccncc1)c1ccncc1` [Compound 24]: the fluorescence binding entry in test [4] is “Alias: CD-18 (Compound 7 in manuscript) fluorescence binding: yes minimum inhibition conc: nd NMR sat. transfer: nd E. coli assay: green pellet”. For the same molecule, the E. coli assay result in test [5] (setting [8]) is “Alias: CD-18 (Compound 7 in manuscript) fluorescence binding: yes minimum inhibition conc: nd NMR sat. transfer: nd E. coli assay: green pellet”; in test [5] (Table 5), “Green Pellet”. The “Biliverdin detection from E. coli Assay” value in test [5] (Table 3A, pellet colour) is “Green Pellet”; in test [5] (setting [9]), “Green Pellet”.

Consider `CC(=O)Nc1ccc(/N=C/c2ccco2)cc1` [Compound 119], for which the fluorescence binding entry in test [4] is reported as “yes”. The NMR sat. transfer entry in test [1] is given as “do not bind paHO”.

As to `Cn1c(=O)c(CC(=O)C(=O)O)nc2ccccc21` [Compound 152], in test [1], the NMR sat. transfer entry was “yes, bind paHO” and the “NMR pa-HO” value is “+”. Further, the MIC50 in test [2] (setting [7]) was over 1000 µg/mL. Further, the minimum inhibition conc entry in test [2] is “no antibacterial activity”. Besides, in test [2] (Table 3A), the “MIC 50 (ug/ml)” value is on record as “no antibact activity”.

In the case of `O=C(O)CCC(=O)Nc1ccc(Oc2ccccc2)cc1` [Compound 48], the NMR sat. transfer entry in test [1] is “do not bind paHO”. Also, in test [5] (setting [8]), the E. coli assay entry is on record as “white pellet”.

`O=[N+]([O-])c1cccc(CN2CCNCC2)c1` [Compound 83]: in test [1], the NMR sat. transfer result is given as “yes, bind paHO” and the “NMR pa-HO” value is listed as “+”. Further, in test [2], the minimum inhibition conc result was “no antibacterial activity”. Besides, the “MIC 50 (ug/ml)” value in test [2] (Table 3A) is on record as “no antibact activity”.

On to `O=C(O)CCn1ncc2ccccc21` [Compound 51], for which the NMR sat. transfer result in test [1] is “Alias: CD-5 fluorescence binding: nd minimum inhibition conc: nd NMR sat. transfer: do not bind paHO”.

For the molecule `Nc1nonc1-c1noc(-c2cccnc2O)n1` [Compound 113], the NMR sat. transfer result in test [1] is recorded as “Alias: CD-17 fluorescence binding: nd minimum inhibition conc: nd NMR sat. transfer: do not bind paHO”.

As to `NCCNS(=O)(=O)c1cccc(C(=O)O)c1` [Compound 18], the NMR sat. transfer entry in test [1] is recorded as “Alias: Spec-7 fluorescence binding: nd minimum inhibition conc: nd NMR sat. transfer: do not bind paHO”.

Regarding `O=C(Oc1ccc(OC(=O)c2ccco2)cc1)c1ccco1` [Compound 47], the NMR sat. transfer result in test [1] is reported as “Alias: CB-3 fluorescence binding: nd minimum inhibition conc: nd NMR sat. transfer: do not bind paHO”.

`O=C(O)CN1C(=O)c2ccccc2C1=O` [Compound 150]: the fluorescence binding result in test [4] is listed as “yes”. In test [1], the NMR sat. transfer entry is given as “yes, bind paHO” and the “NMR pa-HO” value is “+”. The MIC50 in test [2] (setting [7]) is over 1000 µg/mL. For the same molecule, the minimum inhibition conc entry in test [2] is on record as “no antibacterial activity”. Further, the “MIC 50 (ug/ml)” value in test [2] (Table 3A) was “no antibact activity”.
